{"source": "patent US20030060438A1", "about": "“Oligonucleotides and other modulators of the NK-1 receptor pathway and therapeutic uses thereof” (priority 2000, published 2003)", "key": {"NK-1 receptor [1]": {"tested_on": "NK-1 receptor", "assay": "Substance P-induced thermal hyperalgesia, intrathecal oligonucleotide", "format": "in vivo", "details": "intrathecal 75 micro grams/10 microlitres Q12h with SP", "procedure": "The effect of intrathecal (spinal) administration of NK-1 receptor antisense oligonucleotide on substance P-induced thermal hyperalgesia is shown in FIG. 1.\nLatency to thermal stimulation (baseline (B) recordings) was assessed prior to intrathecal injection of substance P (SP, indicated by the arrow in both upper and lower panels). On day 0 (before oligonucleotide treatment has begun), SP (6.7 nmol/10 microlitres) produced a decrease in thermal latency to response indicating the occurrence of hyperalgesia (exaggerated response to noxious or painful stimulation, hollow symbols on both upper and lower panels). Oligonucleotide treatment (75 micro grams/10 microlitres, Q12h for 6 days) or ASCF control (artificial cerebral spinal fluid) was commenced subsequent to assessment of substance P-induced thermal hyperalgesia on day 0. Intrathecal SP (6.7 nmol/10 microlitres, Q12h for 6 days) was administered, in addition to the oligonucleotide, to stimulate NK-1 receptor turnover. Three days after twice-daily injections of antisense (AS) were begun, SP-induced thermal hyperalgesia was attenuated (upper graph, triangles). […] Statistical analysis was performed by a two way ANOVA with time and treatment as independent measures. Time: F(6,21)=10.234, p<0.01, Treatment: F(6,21)=8.245, p<0.05."}, "NK-1 receptor [2]": {"tested_on": "NK-1 receptor", "assay": "Neuropathic pain model (sciatic nerve constriction), mechanical allodynia by von Frey hairs, intrathecal oligonucleotide", "format": "in vivo, rat", "procedure": "Neuropathic pain is a continuous, permanent pain that results from nerve damage. One common feature of neuropathic pain is mechanical allodyina (a painful response to a non-painful stimulus). Humans with neuropathic pain cannot wear clothing on affected regions of the skin or cannot stand in air currents, because their sensitivity is so profound. Neuropathic pain was induced by constriction of the sciatic nerve. Mechanical response thresholds (grams of force) were assessed by application of von Frey hairs to the plantar surface of the ipsilateral hind paw for all groups prior to sciatic nerve constriction surgery (baseline values: B). Oligonucleotides or ASCF control ([…]) via Alzet® minipumps attached to intrathecal catheters for spinal delivery. […] Statistical analyses on mechanical thresholds were performed using the non-parametric Friedman's repeated measures analysis of variance on ranks followed by Wilcoxon signed rank test for post hoc comparisons. […] The lower panel illustrates the mechanical response thresholds are not affected in the contralateral hind paw.\nNeuropathic pain was induced by constriction of the sciatic nerve. Mechanical response thresholds (grams of force) were assessed by application of von Frey hairs to the plantar surface of the ipsilateral hind paw for all groups prior to sciatic nerve constriction surgery (baseline values: B). Oligonucleotides or ASCF control ([…]) via Alzet® minipumps attached to intrathecal catheters for spinal delivery.\n(§1) Neuropathic pain was induced by constriction of the sciatic nerve. Mechanical response thresholds (grams of force) were assessed by application of von Frey hairs to the plantar surface of the ipsilateral hind paw for all groups prior to sciatic nerve constriction surgery (baseline values: B). Oligonucleotides or ASCF control (artificial cerebral spinal fluid) was administered for 72 h by continuous infusion (2 micro grams/microlitres/h) via Alzet® minipumps attached to intrathecal catheters for spinal delivery starting 6 days following nerve constriction (once the mechanical allodynia was established in all groups).\nas §1, with “6 days” for “72 h”, “(0.45” for “(2”, “7” for “6”"}, "NK-1 receptor [3]": {"tested_on": "NK-1 receptor", "assay": "Mechanical response thresholds in naive rats, intrathecal oligonucleotide", "format": "in vivo, rat", "details": "no surgery; intrathecal 1 micro grams/microlitres/h, prolonged administration", "procedure": "The effect of intrathecal administration of NK-1 receptor antisense oligonucleotide on mechanical response thresholds in naive rats is shown in FIG. 6.\nOligonucleotides or ASCF control (artificial cerebral spinal fluid) were administered for 2 days prior to surgery, and throughout the time course of testing, by continuous infusion (1 micro grams/microlitres/h) via Alzet® minipumps attached to intrathecal catheters for spinal delivery."}, "NK-1 receptor [4]": {"tested_on": "NK-1 receptor", "assay": "Western blot of NK-1 receptor protein in lumbar spinal cord after intrathecal oligonucleotide, neuropathic pain model", "format": "in vivo, rat", "details": "intrathecal 2 micro grams/microlitres/h, 48 h prior to sciatic nerve constriction and continuously for 6 days", "procedure": "Oligonucleotides or ASCF control (artificial cerebral spinal fluid) was administered for 48 h prior to sciatic nerve constriction and continuously for 6 days (2 micro grams/microlitres/h) via Alzet® minipumps attached to intrathecal catheters for spinal delivery. Rats were sacrificed by decapitation and lumbar spinal cords were dissected and processed for Western blotting analysis. Samples were resolved using 10% Tris-glycine gels and the proteins were electroblotted onto nitrocellulose membranes. Molecular mass markers are presented in the right column. The arrow indicates the NK-1 receptor."}, "NK-1 receptor [5]": {"tested_on": "NK-1 receptor", "assay": "Formalin test, systemic (intraperitoneal) oligonucleotide", "format": "in vivo, rat", "details": "300 micro grams/kg, Q12 h, 6 days prior to testing, vs saline", "procedure": "The formalin test produces a biphasic nociceptive behavior that lasts up to one hour that is believed to represent a tonic, persistent pain. The index of nociceptive behavior is assessed based a weighted pain intensity scale, where the animal is given a value of 0 for showing no signs of favoring of the injected paw, 1—favoring of hind paw such that it is resting lightly on the floor, 2—elevation of hind paw, 3—licking or vigorously shaking the hind paw. The numerical ratings were calculated by multiplying the amount of time the rats spent in each category by the weighted factor indicated above for each 5 minute interval over a one hour time period. This was expressed by the following formula: (time spent in category 0*0+time spent in category 1*1+time spent in category 2*2+time spent in category 3*3)/300 seconds. Antisense (AS) oligonucleotide (300 micro grams/kg, Q12 h, intraperitoneal) or saline was administered for 6 days prior to testing. […] Statistical analysis was performed by a two way ANOVA with time and treatment as independent measures. Time: F=9.966, p<0.001, Treatment: F=31.85, p<0.001."}, "NK-1 receptor [6]": {"tested_on": "NK-1 receptor", "assay": "Zymosan model of inflammatory bowel disease, Evans blue plasma extravasation of the colon", "format": "in vivo, rat", "details": "300 micro grams/kg, Q12 h, intraperitoneal for 6 days prior to rectal zymosan; Evans blue three hours after zymosan", "procedure": "Inflammatory bowel disease (IBD) is a generic term used to describe major clinical entities including Crohn's disease and ulcerative colitis. IBD was simulated by rectal administration of zymosan, a complement-activating substance. Antisense (AS) oligonucleotide (300 micro grams/kg, Q12 h, intraperitoneal) or saline was administered for 6 days prior to zymosan administration. Three hours after administration of zymosan, rats are injected with Evans blue dye which enables the assessment of plasma extravasation of the colon (degree of inflammation). […] Statistical analysis was performed using an unpaired t-test."}, "[7]": {"details": "intrathecal 2 micro grams/microlitres/h for 72 h starting 6 days following nerve constriction"}}, "data": [{"substance": "5′gac gtt atc cat ttt ggg g3′ (antisense GACGTTATCCATTTTGGGG; listed as DNA, chemistry not fully specified) [NK-1 receptor antisense oligonucleotide used in all experiments]", "values": [{"measurement": "SP-induced thermal hyperalgesia (thermal latency)", "setting": "NK-1 receptor [1]; six days after start", "value": "further decrease in the response to SP"}, {"measurement": "SP-induced thermal hyperalgesia (thermal latency)", "setting": "NK-1 receptor [1]; three days after start", "value": "attenuated"}, {"measurement": "reversal of established mechanical allodynia, lower dose", "setting": "NK-1 receptor [2]; intrathecal 0.45 micro grams/microlitres/h for 6 days starting 7 days following nerve constriction", "value": "had no effect in reversing the decrease in mechanical thresholds"}, {"measurement": "prevention of mechanical allodynia, delivery to sacral rather than lumbar spinal cord", "setting": "NK-1 receptor [2]; intrathecal 1 micro grams/microlitres/h from 2 days prior to surgery, catheter just less than 1 cm from lumbar level", "value": "failed to prevent the development of allodynia"}, {"measurement": "mechanical response threshold, contralateral side", "setting": "NK-1 receptor [2]; [7]", "value": "no effect"}, {"measurement": "reversal of established mechanical allodynia, ipsilateral hind paw", "setting": "NK-1 receptor [2]; [7]", "value": "reversed allodynia"}, {"measurement": "mechanical response threshold, ipsilateral hind paw (prevention of mechanical allodynia)", "setting": "NK-1 receptor [2]; intrathecal (lumbar) 1 micro grams/microlitres/h from 2 days prior to sciatic nerve constriction and throughout testing", "value": "did not show a decrease in their threshold of mechanical stimulation"}, {"measurement": "mechanical response (withdrawal) threshold of either hind limb in naive rats", "setting": "NK-1 receptor [3]", "value": "had no effect"}, {"measurement": "NK-1 receptor protein expression (Western blot) compared to ACSF control", "setting": "NK-1 receptor [4]", "value": "significantly attenuates the protein expression"}, {"measurement": "formalin-induced nociceptive scores", "setting": "NK-1 receptor [5]", "value": "nociceptive scores are less"}, {"measurement": "zymosan-induced plasma extravasation of the colon", "setting": "NK-1 receptor [6]", "value": "significantly lower"}]}]}
